From publication PMC5368959, “Uricosuric targets of tranilast” (Pharmacology Research & Perspectives, 2017) come the findings set out here.

The target in data set [1] is T1, GLUT9a (Homo sapiens, UniProt Q9NRM0).
T1 sequence (Q9NRM0 1-540): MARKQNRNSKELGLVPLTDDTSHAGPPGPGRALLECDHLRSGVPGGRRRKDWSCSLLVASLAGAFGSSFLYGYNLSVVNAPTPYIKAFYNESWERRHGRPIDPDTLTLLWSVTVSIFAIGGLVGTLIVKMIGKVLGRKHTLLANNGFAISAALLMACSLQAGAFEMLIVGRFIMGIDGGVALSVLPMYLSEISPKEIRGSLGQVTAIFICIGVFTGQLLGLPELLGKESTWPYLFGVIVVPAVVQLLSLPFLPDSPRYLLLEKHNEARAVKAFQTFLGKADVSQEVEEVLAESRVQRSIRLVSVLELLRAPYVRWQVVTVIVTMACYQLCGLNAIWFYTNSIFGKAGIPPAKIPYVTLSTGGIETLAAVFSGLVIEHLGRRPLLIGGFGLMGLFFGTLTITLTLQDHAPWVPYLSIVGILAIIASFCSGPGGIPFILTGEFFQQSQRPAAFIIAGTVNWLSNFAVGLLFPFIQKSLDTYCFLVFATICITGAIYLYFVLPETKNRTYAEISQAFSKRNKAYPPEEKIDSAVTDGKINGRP
Nature of the data set: [14C]-urate uptake by GLUT9a-expressing Xenopus oocytes. Type of data set: cell-based. Conditions: for IC50: 40 μmol/L urate, NaCl medium, read-out: IC50, GLUT9a-mediated [14C]-urate uptake. The text has this:
(§1) For uptake experiments, oocytes were washed four times with ND96 medium (pH 7.4) without pyruvate and gentamycin.
We sought to investigate the effect of tranilast on GLUT9a‐mediated [^14C]‐urate uptake in Xenopus laevis oocytes.

Data set [2] has as its target T2, SMCT1 (Homo sapiens, UniProt Q8N695).
T2 sequence (Q8N695 1-610): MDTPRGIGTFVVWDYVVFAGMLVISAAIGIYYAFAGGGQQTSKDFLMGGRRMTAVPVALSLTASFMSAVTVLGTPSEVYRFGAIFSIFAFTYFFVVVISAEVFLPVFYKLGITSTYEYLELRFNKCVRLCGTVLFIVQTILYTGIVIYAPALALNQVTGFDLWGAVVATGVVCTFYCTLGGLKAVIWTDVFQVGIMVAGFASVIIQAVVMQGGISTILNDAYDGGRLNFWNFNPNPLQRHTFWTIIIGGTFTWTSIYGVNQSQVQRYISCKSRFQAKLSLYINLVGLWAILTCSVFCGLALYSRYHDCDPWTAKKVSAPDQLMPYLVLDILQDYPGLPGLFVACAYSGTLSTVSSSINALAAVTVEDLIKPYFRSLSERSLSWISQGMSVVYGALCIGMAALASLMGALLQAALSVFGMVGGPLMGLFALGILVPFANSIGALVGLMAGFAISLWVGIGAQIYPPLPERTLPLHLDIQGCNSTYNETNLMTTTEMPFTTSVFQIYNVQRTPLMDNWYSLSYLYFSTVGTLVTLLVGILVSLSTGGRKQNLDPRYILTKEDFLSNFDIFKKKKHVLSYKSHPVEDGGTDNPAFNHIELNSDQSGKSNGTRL
Nature of the data set: [14C]-nicotinate uptake by SMCT1-expressing Xenopus oocytes. In kind it is cell-based. Conditions: for IC50: data not shown, read-out: IC50, SMCT1-mediated [14C]-nicotinate uptake. How it is done:
as §1
Chloride ion‐dependence was also assessed; in 0 Cl^− bath, NaCl was replaced by Na‐gluconate (Na‐Gluc), KCl by K‐gluconate (K‐Gluc), MgCl2 by Mg‐gluconate, and CaCl2 by Ca‐gluconate. […] Data are mean ± S.E. with n = 12–15.

The target in data set [3] is T3, NPT1 (Homo sapiens, UniProt Q14916).
T3 sequence (Q14916 1-467): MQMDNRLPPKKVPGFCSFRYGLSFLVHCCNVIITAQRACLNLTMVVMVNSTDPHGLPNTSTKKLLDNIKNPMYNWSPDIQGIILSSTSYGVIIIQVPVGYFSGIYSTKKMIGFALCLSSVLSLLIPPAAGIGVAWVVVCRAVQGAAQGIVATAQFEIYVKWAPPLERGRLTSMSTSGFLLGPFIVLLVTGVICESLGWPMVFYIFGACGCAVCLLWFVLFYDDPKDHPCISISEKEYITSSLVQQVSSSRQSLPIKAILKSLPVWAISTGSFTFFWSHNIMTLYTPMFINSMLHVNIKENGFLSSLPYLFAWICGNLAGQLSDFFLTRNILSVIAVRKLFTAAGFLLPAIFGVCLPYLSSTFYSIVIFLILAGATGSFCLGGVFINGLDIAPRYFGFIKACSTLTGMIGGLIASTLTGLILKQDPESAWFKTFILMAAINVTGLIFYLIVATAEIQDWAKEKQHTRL
As to the kind of experiment: [14C]-urate uptake by NPT1-expressing Xenopus oocytes. Type of data set: cell-based. How it is done:
as §1
The uptake of [^14C]‐urate by NPT1‐expressing oocytes was performed in ND96 medium (pH 7.4) at ~25°C for 1 h. […] Data are mean ± S.E. with n = 12–15.

The target in data set [4] is T4, ABCG2 (Homo sapiens, UniProt Q9UNQ0).
T4 sequence (Q9UNQ0 1-655): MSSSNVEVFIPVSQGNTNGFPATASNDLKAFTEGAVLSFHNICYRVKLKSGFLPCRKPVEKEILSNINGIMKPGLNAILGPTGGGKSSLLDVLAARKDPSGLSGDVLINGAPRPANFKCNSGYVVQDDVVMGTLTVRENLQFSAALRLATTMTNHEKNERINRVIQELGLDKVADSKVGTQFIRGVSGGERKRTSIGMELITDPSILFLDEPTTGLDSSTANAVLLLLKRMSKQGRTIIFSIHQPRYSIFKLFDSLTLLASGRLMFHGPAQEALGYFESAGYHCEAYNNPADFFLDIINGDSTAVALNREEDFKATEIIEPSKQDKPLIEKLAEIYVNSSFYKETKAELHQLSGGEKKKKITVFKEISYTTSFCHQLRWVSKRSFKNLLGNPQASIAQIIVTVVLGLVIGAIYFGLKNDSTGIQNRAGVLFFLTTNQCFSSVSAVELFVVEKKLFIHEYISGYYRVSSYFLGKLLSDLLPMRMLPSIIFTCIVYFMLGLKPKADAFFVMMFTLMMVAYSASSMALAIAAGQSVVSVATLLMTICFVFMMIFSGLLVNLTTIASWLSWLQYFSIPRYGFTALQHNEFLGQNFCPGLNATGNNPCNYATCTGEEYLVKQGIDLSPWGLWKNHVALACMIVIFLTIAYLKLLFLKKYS
Nature of the data set: [14C]-urate efflux from ABCG2-expressing Xenopus oocytes.
Experimental: In brief, a small incision was made in the abdomen and a lobe of ovary was removed. […] Oocytes were then defolliculated by treatment with 3.5 mg/mL collagenase A (Roche, Indianapolis, IN) in Ca^2+‐free ND96 medium for 60–70 min with gentle agitation at room temperature (25°C).
The indicated full‐length cDNAs were subcloned into the pGEMHE oocyte expression plasmid, 3′ of a T7 promoter and flanked by Xenopus laevis‐specific 5′‐ and 3′‐UTRs. Plasmid DNA was linearized at the 3′‐end of cDNAs by Not1, Nhe1, or EcoR1 digestion, and cRNA was in vitro transcribed by using T7 RNA polymerase (mMESSAGE mMACHINE; Ambion, Austin, TX) following the suppliers protocol. Isopropanol‐precipitated, in vitro transcribed capped cRNA was washed with 70% ethanol, dried and then dissolved in sterile nuclease‐free water. The yield and RNA integrity of the capped cRNA samples were assessed by spectroscopy (at 260 nm) and 1% agarose‐formaldehyde gel electrophoresis, respectively. All cRNA samples were stored frozen in aliquots at −80°C until used. About 18 h after isolation, oocytes were injected with 50 nL of sterile water, 50 mmol/L tris pH 7.4, or 50 nL of a cRNA solution in 50 mmol/L tris buffer (pH 7.4) containing 25 ng of the indicated cRNA using fine‐tipped micropipettes by a microinjector (World Precision Instrument Inc. Sarasota, FL).
Preinjected oocytes were then incubated in ND96 medium for 1 h at 16°C for recovery. After incubation, the oocytes were washed in cold ND96 medium four times to remove any external adhering [^14C]‐urate from the oocytes and then subjected to efflux for 1 h at room temperature (~25°C) in ND96 medium (pH 7.4) in the absence or presence of drug.
Radioisotope content of each individual oocyte was measured by scintillation counter after solubilization in 0.3 mL of 10% (v/v) SDS and addition of 2.5 mL of scintillation fluid. […] Statistical analyses including linear regressions were done using SigmaPlot software.
We investigated the effect of tranilast (added in the efflux assay medium) on the [^14C]‐urate efflux activity of ABCG2 expressed in Xenopus laevis oocytes. […]

Setting [5] is: human, Xenopus laevis oocytes expressing ABCG2, pH 7.4, probe [14C]-urate.

“And” between values parts separate entries of the source, which are not always exact repeats. Equal entries are not always repeated. Where two headings read alike, the source gives them in different places.

Regarding `CCc1oc2ccccc2c1C(=O)c1cc(Br)c(O)c(Br)c1` [benzbromarone], in data set [1], the “GLUT9a urate transport inhibition after washing and removal of inhibitor” value was “substantially inhibited”; the “Inhibition of GLUT9a urate uptake” value is on record as “efficiently inhibited”; the “Reversibility of GLUT9a inhibition” value was “not reversible”; the IC50 was around 14.2 µM. The 50% inhibitory concentration (IC50) in data set [2] was around 49.6 µM. The compound further showed an IC50 in data set [3] of around 17.1 µM. Besides, the “Inhibition of NPT1-mediated urate uptake” value in data set [3] (drug 100 μmol/L) is reported as “effectively inhibited”. The compound further displayed an inhibition at 1 h, 100 μmol/L in data set [4] (setting [5]) of around 48%.

In data set [1] (drug 1.0 mmol/L), `CCCN(CCC)S(=O)(=O)c1ccc(C(=O)O)cc1` [probenecid] yielded an inhibition at 1000 µM of around 60%. Further, the “Reversibility of GLUT9a inhibition” value in data set [1] (washout in oocytes) is “not reversible”. In data set [2] (drug 1.0 mmol/L), the “Inhibition of SMCT1 nicotinate uptake” value is “significantly inhibited”. Moreover, the “Inhibition of NPT1-mediated urate uptake” value in data set [3] (drug 1.0 mmol/L) is reported as “only partially inhibited”. This compound returned an inhibition at 1 h, 1 mmol/L in data set [4] (setting [5]) of around 20%.

As to `COc1ccc(C=CC(=O)Nc2ccccc2C(=O)O)cc1OC` [tranilast, N‐(3,4‐dimethoxycinnamoyl) anthranilic acid], in data set [1], the “GLUT9a urate transport inhibition after washing and removal of inhibitor” value was “almost no inhibition”; the “Inhibition of GLUT9a urate uptake” value was “efficiently inhibited”; the “Vmax of GLUT9a-mediated urate uptake” value is 108.4 pmoles/oocyte/h and 61 pmoles/oocyte/h; the “mode of inhibition of GLUT9a-mediated urate transport” value is recorded as “noncompetitive (mixed) inhibition”. The concentration for half-maximal inhibition (IC50) in data set [1] is around 15.6 µM. Further, the inhibition constant Ki in data set [1] (Eadie-Hofstee analysis, read-out: inhibition constant (Ki) for GLUT9a-mediated urate uptake) is 17.1 ± 1.3 µM. Also, the “IC50 for GLUT9a under membrane depolarization” value in data set [1] (depolarized vs polarized, data not shown) was “remained unchanged”. Besides, in data set [2], the IC50 is ~1100 µM and > 185 µM. Also, the IC50 in data set [3] (data not shown, read-out: IC50, [14C]-urate uptake by NPT1) is around 18.9 µM. Further, in data set [3] (drug 100 μmol/L), the “Inhibition of NPT1-mediated urate uptake” value is given as “effectively inhibited”. In data set [4] (drug 100 μmol/L, efflux 1 h), the “Effect on ABCG2-mediated urate efflux” value is “remained unaffected”.
